Measurements taken from US20070196360A1, “SUCCINIMIDE AND MALEIMIDE DERIVATIVES AND THEIR USE AS TOPOISOMERASE II CATALYTIC INHIBITORS” (TOPOTARGET A/S, priority 2001, published 2007).
“Also recorded” adds a separate entry of the source. Like-named read-outs stand apart in the source and are kept apart here. Marks after values point to notes of the source that are not given here.

How the values were obtained:
[1] = tested on: NCI-H69, NCI-H69/DAU and NCI-H69/VP; test: Clonogenic assay on NCI-H69 and multi drug resistant derivatives; format: cell-based, human; conditions: NCI-H69 versus NCI-H69/DAU and NCI-H69/VP
Text: Further corroboration of catalytic inhibitory activity of compounds of formula M was found in clonogenic assays on human lung cancer cell lines H69/dau and H69/VP because no resistance to compounds of formula M was found in these cell lines which are selected to be daunorubicin and, etopside (VP-16) resistant respectively.
A 3-week clonogenic assay is used. […] Finally, the colonies are counted.

[2] = target: T1, purified topoisomerase II α (Homo sapiens, UniProt P11388); test: Decatenation assay (kDNA decatenation); format: biochemical
T1 sequence (P11388 whole entry): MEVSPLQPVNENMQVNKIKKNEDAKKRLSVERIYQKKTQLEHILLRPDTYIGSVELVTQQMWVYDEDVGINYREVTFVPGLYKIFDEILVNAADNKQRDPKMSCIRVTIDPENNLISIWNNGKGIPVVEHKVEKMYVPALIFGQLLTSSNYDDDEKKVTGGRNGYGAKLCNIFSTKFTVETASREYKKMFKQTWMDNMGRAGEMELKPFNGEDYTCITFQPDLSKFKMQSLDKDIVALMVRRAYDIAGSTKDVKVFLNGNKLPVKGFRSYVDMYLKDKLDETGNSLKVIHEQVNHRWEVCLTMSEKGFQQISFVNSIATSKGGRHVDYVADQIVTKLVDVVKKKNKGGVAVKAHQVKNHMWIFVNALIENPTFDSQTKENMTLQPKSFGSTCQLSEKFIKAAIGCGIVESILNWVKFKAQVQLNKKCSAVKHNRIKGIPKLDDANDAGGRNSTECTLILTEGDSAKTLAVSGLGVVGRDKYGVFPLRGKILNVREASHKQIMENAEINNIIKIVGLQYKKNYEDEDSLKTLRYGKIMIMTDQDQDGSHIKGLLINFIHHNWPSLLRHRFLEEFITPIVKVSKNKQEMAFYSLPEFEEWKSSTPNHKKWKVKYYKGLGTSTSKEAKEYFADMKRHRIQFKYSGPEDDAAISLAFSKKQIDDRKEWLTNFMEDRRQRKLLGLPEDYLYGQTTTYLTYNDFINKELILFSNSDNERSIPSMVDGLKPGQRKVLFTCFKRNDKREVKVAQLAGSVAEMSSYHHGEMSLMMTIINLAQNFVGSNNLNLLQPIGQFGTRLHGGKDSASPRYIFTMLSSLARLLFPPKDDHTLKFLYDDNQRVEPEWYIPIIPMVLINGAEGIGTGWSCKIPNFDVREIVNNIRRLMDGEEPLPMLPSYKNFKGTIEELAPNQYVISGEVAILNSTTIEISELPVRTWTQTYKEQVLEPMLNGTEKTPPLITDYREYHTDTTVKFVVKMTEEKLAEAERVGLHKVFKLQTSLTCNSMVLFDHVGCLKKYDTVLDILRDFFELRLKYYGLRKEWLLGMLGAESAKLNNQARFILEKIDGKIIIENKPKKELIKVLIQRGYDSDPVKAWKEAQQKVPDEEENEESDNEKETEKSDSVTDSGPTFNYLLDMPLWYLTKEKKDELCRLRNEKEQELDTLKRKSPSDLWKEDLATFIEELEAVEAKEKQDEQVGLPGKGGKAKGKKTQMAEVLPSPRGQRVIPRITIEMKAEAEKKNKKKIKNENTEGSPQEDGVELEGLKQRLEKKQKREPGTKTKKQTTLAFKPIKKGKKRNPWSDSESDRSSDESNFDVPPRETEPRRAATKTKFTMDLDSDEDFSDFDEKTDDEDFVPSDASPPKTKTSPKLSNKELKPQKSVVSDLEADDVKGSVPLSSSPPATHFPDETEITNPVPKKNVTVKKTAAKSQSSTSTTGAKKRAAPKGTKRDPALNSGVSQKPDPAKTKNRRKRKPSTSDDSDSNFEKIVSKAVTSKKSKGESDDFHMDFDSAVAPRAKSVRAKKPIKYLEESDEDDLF
Text: The decatenation assay is a direct measurement of a given compounds inhibitory action on purified topoisomerase II enzyme. The general role of the topoisomerase II enzyme in living cells is to cause decatenation of catenated DNA during cell division. If a compound is able to inhibit this decatenation, the compound is an inhibitor of the topoisomerase II enzyme. While this assay is capable of determining whether a given compound is active against topoisomerase II, information concerning the exact mode of action is not provided.
Topoisomerase II catalytic activity is measured by kDNA decatenation. ^3H labelled kDNA is isolated from Crithidia fasciculata (ATCC, Manassas, Va.) as described in (24). Briefly, relevant concentrations of the test compound in buffer (50 mM Tris-Cl, pH8, 120 mM KCl, 10 mM MgCl2, 1.0 mM ATP, […]) and purified topoisomerase II α is incubated with […] for 15 min at 37° C. in a final volume of 20 μl. After addition of stop buffer/loading dye mix (5% Sarkosyl, 0.0025% bromophenol blue, 25% glycerol), samples are loaded on 1% agarose/0.5% ethidium bromide gels and run in TBE buffer containing […] ethidium bromide at 100V for approximately 50 min and photographed under UV light. In addition, loading wells are cut out and scintillation counted to obtain numerical values. These values are then plotted against drug concentration to obtain dose-response curves enabling the determination of IC50 values for individual compounds.

[3] = target: T1, purified topoisomerase II α; test: Plasmid cleavage assay; format: biochemical
Method: The plasmid cleavage assay is capable of assessing wether a given compound stimulates topoisomerase II mediated DNA cleavage in the test tube. A modification of the protocol described in (Burden et al., 2001) is used. 350 ng purified human topoisomerase II α, 400 ng pUC18 DNA, and increasing concentrations of drugs were incubated for 6 min at 37° C. in 20 μl topoisomerase II cleavage buffer (10 mM TRIS-HCL pH 7.9, 50 mM NaCl, 50 mM KCl, 5 mM CaCl2, 1 mM EDTA, 15 μg/ml BSA and 1 mM Na2ATP, all from Sigma Chemical Co., St. Louis, Mo., USA). Next, the cleavable complex was trapped by adding 2 μl 10% SDS. After vigorous vortexing 1.5 μl 0.25 M EDTA and 2 μl proteinase K (0.8 μg/ml) in proteinase buffer (50 mM Tris-HCL pH=7.9, 1 mM CaCl2) was added and the samples vortexed. After a 30 min incubation at 45° C., 5 μl loading buffer (5% Sarkosyl, 0.0025% bromophenol blue, 25% glycerol) was added and the samples were exposed to 70° C. for 5 min. Next, samples were run through a 0.8 % agarose gel in 1× TAE buffer for three hours at 5 V/cm to separate different topological forms of plasmid DNA. Finally the gels were strained in distilled water containing 10 μg/ml ethidium bromide for 15 min followed by de-strained in distilled water for one hour before they were photographed in UV light. […] Further, compounds not capable of stimulating topoisomerase mediated DNA cleavage while being active in the decatenation assay are also classified as topoisomerase II catalytic inhibitors.

[4] = tested on: extractable topoisomerase II in OC—NYH cells; test: Band depletion assay
Method: OC—NYH cells are incubated for 1 h at 37 C in RPMI 1640 with 10% of fetal calf serum with the desired compounds for test. Thereafter, whole cell lysates were obtained at 4 C. Exponentially growing cells were harvested and washed in PBS. Cells are resuspended in 0.2 mL ELB-buffer (NaCl 0.25 M, NP40 0.1%, HEPES 50 mM, EDTA 5 mM) containing aprotinin 1 μg/ml, leupeptin 1 μg/ml, DTT 1M and PMSF 0.3 mM and lysed for 30 min. Pellets are spun down at 20000×g for 20 min. The protein concentration of the supernatants is measured, and the supernatants are diluted with an equal volume of glycerol.
After heating the nuclear extracts for 5 min at 95 C, the sample is immediately loaded on a 7% SDS-PAGE gel containing 5% glycerol. Thereafter, all steps are performed at RT. The separated proteins are transferred to Trans-Blot® Nitrocellulose, in a Mini Trans-blot® Electrophoretic Transfer Cell with 25 mM Tris, 192 mM glycine and 205 v/v methanol, pH 8.3 at 210 mA for 1 h. Membranes are blocked in 10% milk in TBS-T for 1 h and probed with either topoisomerase II as (1:1000) 1 h. Horseradish-peroxidase-conjugated donkey-antirabbit antibodies are used as secondary antibodies. The blots are developed using ECL™reagent 1 min and thereafter exposed on films for 5 min. Quantification of can be made by densitometric scanning.

OC—NYH cells = test: Alkaline elution (single strand DNA breaks, SSBs)
Method: This assay thus provides information concerning a given compounds ability to cause (or antagonize in the case of topoisomerase II catalytic inhibitors in the combination with classical topoisomerase II poisons) DNA damage in intact cells.
The assays for SSBs and for DPCs (DNA-protein cross-links) are performed according to Kohn et. al (23).
For measurement of single-strand breaks (SSBs), L1210 cells used as internal standard are exposed to 100 μM H2O2 for 60 min on ice, corresponding to an irradiation dose of 300 rad as described by Szmigiero and Studzian (25). OC—NYH cells are incubated in medium supplemented with the indicated drug at 37° C. for the specified periods, washed in 10 mL ice-cold PBS and then lysed on the filter (Nucleopore, 2.0 μM pore size) with 5 mL of SDS-EDTA lysis solution (2% SDS, 0.1 glycine and 0.025 M Na2EDTA) at pH 10, followed by addition of 1.5 mL SDS-EDTA lysis solution supplemented with 0.5 mg/mL proteinase K. Mixing of standard and experimental cells is done immediately prior to lysis. […] Fractions are collected at 20-min intervals for 2 h. Filters are treated with 400 μL 1 N HCl for 1 h at 60° C., cooled and 0.4 M NaOH is added prior to scintillation counting.

[5] = tested on: cultured human cancer cells; test: Clonogenic assay (cytotoxicity; antagonism of topoisomerase II poison cytotoxicity); conditions: for inhibition of the toxicity of the classical poisons (protection): poisons VP16, DAU, IDA; for IC50: Homo sapiens, read-out: IC50 (clonogenic assay)
Text: The information derived from the clonogenic assay is cytotoxicity.
A 3-week clonogenic assay is used. […] The number of cells is adjusted to obtain 2000 to 3000 colonies in the control dishes. Finally, the colonies are counted.

[6] = animal studies and patients; cited from earlier work
[7] = FIG. 7, read-out: IC50, decatenation assay
[8] = read-out: IC50, topoisomerase II decatenation
[9] = etoposide 50 uM, compound between 5 and 625 uM
[10] = compound 75 uM, daunorubicin 0.3 uM

SMILES: O=C1C=CC(=O)N1 [maleimide]
- cross resistance of MDR cell lines [1]: No cross resistance
- inhibition of topoisomerase II catalytic activity (decatenation), in words [2]: Very potent,
- IC50 [2, 7]: ~2 µM
- IC50 [2, 8]: 2 µM
- antagonism of etoposide induced DNA cleavage [3]: capable of antagonising
- stimulation of topoisomerase II mediated DNA cleavage [3]: does not stimulate
- antagonism of etoposide induced DNA cleavage [3, 9]: Strong
- band depleting effect of etoposide ([4]; etoposide 100 μM, compound 50 μM (FIG. 10)): completely lost
- antagonism of DNA damage induced by etoposide, daunorubicin or doxorubicin (OC—NYH cells): antagonize
- inhibition of VP-16 induced SSBs (OC—NYH cells; compound at 50 uM): antagonise; also recorded: Effective
- antagonism of etoposide and daunorubicin mediated cytotoxicity [5]: effectively blocked
- survival ([5]; compound 0.5 uM, DAU 0.5 uM): up to 10%
- protection class ([5]; compound 0.5 uM, VP-16 20 uM): (VP-16 (20 uM)+ (The + indicates, that the protection. i.e. log(number of surviving cells) is about 1.)
- survival ([5]; compound 0.5 uM, VP-16 20 uM): up to 30%
- LD50 ([5]; compound alone): LD50 4 uM.
- toxic to cells ([5]; compound given alone): toxic to cells in itself; also recorded: Very toxic to
- inhibition of poison induced cell toxicity ([5]; etoposide 20 μM and daunorubicin 0.3 μM (FIG. 3)): strong
- inhibition of the toxicity of the classical poisons (protection) [5]: Effective

SMILES: CCN1C(=O)C=CC1=O [NEM, N-ethyl-maleimide]
- inhibition of topoisomerase II catalytic activity (decatenation), in words [2]: Very potent,
- IC50 [2, 7]: ~4 µM
- IC50 [2, 8]: 5 µM
- antagonism of etoposide induced DNA cleavage [3]: capable of antagonising
- stimulation of topoisomerase II mediated DNA cleavage [3]: does not stimulate
- antagonism of etoposide induced DNA cleavage [3, 9]: Strong
- DNA damage by the compound itself (OC—NYH cells; concentrations up to 250 uM): Only limited DNA
- IC50 [5]: 4 µM

SMILES: O=C1CC(NCCNC2CC(=O)NC2=O)C(=O)N1 (stereo not shown) [I-21, N,N′-Di-(pyrrolidine-2′,5′-dione-3′-yl)-ethylene-1,2-diamine]
- concentration from which topoisomerase II decatenation is inhibited [2]: above 500 uM. IC50
- IC50 [2, 8]: ~800 µM
- effect on the VP-16 induced SSBs (OC—NYH cells; compound from 50-500 uM): No effect on the VP-16
- protection class ([5]; compound 500 uM, VP-16 20 uM): + (The + indicates, that the protection. i.e. log(number of surviving cells) is about 1.)
- survival ([5]; compound 500 uM, VP-16 20 uM): ≤ 1%
- LD50 ([5]; compound alone): LD50 = 750 uM.
- toxic to cells ([5]; lower pH): pH 7.4. Tax at lower
- toxic to cells ([5]; pH 7.4): Not toxic to cells
- inhibition of the toxicity of the classical poisons (protection) [5]: Only very weak

SMILES: COc1cc([C@@H]2c3cc4c(cc3[C@@H](O[C@@H]3O[C@@H]5CO[C@@H](C)O[C@H]5[C@H](O)[C@H]3O)[C@H]3COC(=O)[C@H]23)OCO4)cc(OC)c1O [etoposide, reference compound]
- extractable amount of topoisomerase II ([4]; cells treated with 100 μM): clearly reduced

SMILES: C[C@@H](CN1CC(=O)NC(=O)C1)N1CC(=O)NC(=O)C1 [ICRF-187, (+)-1,2-bis(3,5-dioxopiperazinyl-1-yl)propane, reference compound]
- inhibition of topoisomerase II catalytic activity (decatenation), in words [2]: effectively. IC50 about
- IC50 [2, 8]: ~50 µM
- antagonism of etoposide induced DNA cleavage [3]: cleavage. No
- protection against anthracycline extravasation injuries [6]: protected
- reversal of etoposide (VP-16) induced SSBs (OC—NYH cells; compound 500 μM, etoposide 3 μM (FIG. 4)): reversal
- inhibition of VP-16 induced SSBs (OC—NYH cells; compound at 200 uM): Effective inhibition of
- protection class ([5]; compound 500 uM, idarubicin 0.01 μM): (IDA(0.01)+ up to (The + indicates, that the protection. i.e. log(number of surviving cells) is about 1.)
- survival ([5]; compound 500 uM, idarubicin 0.03): ≤ 40% survival)*
- LD50 ([5]; compound alone): 750 µM
- toxic to cells ([5]; compound given alone): no toxicity and Not
- inhibition of the toxicity of the classical poisons (protection) [5]: Effective inhibitor of

SMILES: CC(CNC1CC(=O)NC1=O)NC1CC(=O)NC1=O (stereo not shown) [I-112]
- inhibition of topoisomerase II catalytic activity (decatenation), in words [2]: effectively. IC50 about
- IC50 [2, 8]: ~100 µM
- inhibition of VP-16 induced SSBs (OC—NYH cells; compound at 250 uM, FIG. 4: etoposide 3 μM): reversal; also recorded: Effective inhibition of
- protection against VP-16 toxicity [5]: VPneg.
- protection class [5, 10]: DAU(0.3[…]uM)+ up to (The + indicates, that the protection. i.e. log(number of surviving cells) is about 1.)
- survival [5, 10]: ≤ 20% survival.
- LD10 ([5]; compound alone): LD10 = 75 uM.
- toxic to cells ([5]; compound given alone): no cytotoxicity; also recorded: Not toxic to cells
- inhibition of the toxicity of the classical poisons (protection) [5]: able to protect; also recorded: Inhibits the toxicity of

SMILES: CN1C(=O)C=CC1=O [NMM, N-methyl-maleimide]
- inhibition of topoisomerase II catalytic activity (decatenation), in words [2]: Very potent,
- IC50 [2, 7]: ~4 µM
- IC50 [2, 8]: 5 µM
- antagonism of etoposide and daunorubicin mediated cytotoxicity [5]: effectively blocked
- IC50 [5]: 4 µM
